# Results reported in PubChem BioAssay (NCI).
# “And” between values parts separate entries of the source, which are not always exact repeats. Equal entries are not always repeated.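 Cells were grown in 96-well plates and exposed to each compound for 48 hours at five concentrations; endpoints were interpolated linearly between bracketing concentrations, or set to the highest concentration if not reached. The concentration for 50% growth inhibition is given as GI50. Definition used: TGI = concentration required for complete inhibition of growth.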
# Tests used:
# Test in all cases: NCI tumour cell line growth inhibition, 48 h
# [1] = tested on: 786-0 renal
# [2] = tested on: A498 renal
# [3] = tested on: A549 NSCLC
# [4] = tested on: ACHN renal
# [5] = tested on: CAKI-1 renal
# [6] = tested on: CCRF-CEM leukemia
# [7] = tested on: COLO 205 colon
# [8] = tested on: DLD-1 colon
# [9] = tested on: DMS 114 small cell lung
# [10] = tested on: DMS 273 small cell lung
# [11] = tested on: EKVX NSCLC
# [12] = tested on: HCC-2998 colon
# [13] = tested on: HCT-116 colon
# [14] = tested on: HCT-15 colon
# [15] = tested on: HL-60(TB) leukemia
# [16] = tested on: HOP-18 NSCLC
# [17] = tested on: HOP-62 NSCLC
# [18] = tested on: HOP-92 NSCLC
# [19] = tested on: HT29 colon
# [20] = tested on: IGROV1 ovarian
# [21] = tested on: K-562 leukemia
# [22] = tested on: KM20L2 colon
# [23] = tested on: LOX IMVI melanoma
# [24] = tested on: LXFL 529 NSCLC
# [25] = tested on: M14 melanoma
# [26] = tested on: M19-MEL melanoma
# [27] = tested on: MALME-3M melanoma
# [28] = tested on: MCF7 breast
# [29] = tested on: MOLT-4 leukemia
# [30] = tested on: NCI-H23 lung
# [31] = tested on: NCI-H460 lung
# [32] = tested on: NCI/ADR-RES ovarian
# [33] = tested on: OVCAR-3 ovarian
# [34] = tested on: OVCAR-4 ovarian
# [35] = tested on: OVCAR-5 ovarian
# [36] = tested on: OVCAR-8 ovarian
# [37] = tested on: P388 leukemia
# [38] = tested on: P388/ADR leukemia
# [39] = tested on: RPMI-8226 leukemia
# [40] = tested on: RXF 393 renal
# [41] = tested on: SF-268 CNS
# [42] = tested on: SF-295 CNS
# [43] = tested on: SF-539 CNS
# [44] = tested on: SK-MEL-2 melanoma
# [45] = tested on: SK-MEL-28 melanoma
# [46] = tested on: SK-MEL-5 melanoma
# [47] = tested on: SK-OV-3 ovarian
# [48] = tested on: SN12C renal
# [49] = tested on: SN12K1 renal
# [50] = tested on: SNB-19 CNS
# [51] = tested on: SNB-75 CNS
# [52] = tested on: SR leukemia
# [53] = tested on: SW-620 colon
# [54] = tested on: TK-10 renal
# [55] = tested on: U251 CNS
# [56] = tested on: UACC-62 melanoma
# [57] = tested on: XF 498 CNS
structure (smiles),measurement,setting,value
CC1[C@@H]2CC=C3[C@H]4CCC5Cc6nc7c(nc6C[C@@]5(C)C4(O)CC(=O)[C@]32CO[C@]12OC(C)(C)CC2O)CC1CC[C@@H]2C3=C[C@H]4O[C@@]5(O[C@@](C)(CO)C[C@@H]5O)C(C)[C@@]4(O)[C@]3(C)[C@@H](O)CC2[C@]1(C)C7 (some centres undefined),GI50,[1],0.142 nM
same,TGI,[1],44.6 nM
same,GI50,[2],0.396 nM
same,TGI,[2],4.25 nM and 4.93 nM
same,GI50,[3],0.294 nM and 1.21 nM
same,TGI,[3],223 nM and 1120 nM
same,GI50,[4],2.57 nM
same,TGI,[4],381 nM
same,GI50,[5],0.573 nM and 4.63 nM
same,TGI,[5],365 nM and > 3600 nM
same,GI50,[6],0.126 nM and 0.441 nM
same,TGI,[6],7.23 nM and 63.8 nM
same,TGI,[7],6.58 nM and 64.4 nM
same,GI50,[8],71.2 nM and 86.6 nM
same,TGI,[8],874 nM and > 3600 nM
same,GI50,[9],0.367 nM
same,GI50,[10],0.36 nM
same,GI50,[11],6.15 nM and 9.96 nM
same,TGI,[11],152 nM and 814 nM
same,GI50,[12],321 nM
same,TGI,[12],> 3.6 µM
same,TGI,[13],105 nM and 846 nM
same,GI50,[14],2.34 nM and 12.7 nM
same,TGI,[14],73.7 nM and 589 nM
same,GI50,[15],0.36 nM
same,TGI,[16],> 3.6 µM
same,GI50,[17],0.104 nM and 0.36 nM
same,TGI,[17],0.831 nM and 2.57 nM
same,GI50,[18],0.104 nM and 0.36 nM
same,GI50,[19],0.918 nM and 1.23 nM
same,TGI,[19],48.6 nM and 62.3 nM
same,GI50,[20],2.58 nM and 4.9 nM
same,TGI,[20],> 3.6 µM
same,GI50,[21],0.149 nM and 1.12 nM
same,TGI,[21],21 nM and 59.5 nM
same,GI50,[22],0.664 nM and 2.02 nM
same,TGI,[22],70.4 nM and 67.5 nM
same,GI50,[23],0.15 nM and 1.14 nM
same,GI50,[24],0.139 nM
same,TGI,[24],0.387 nM
same,GI50,[25],0.135 nM
same,TGI,[25],0.363 nM
same,GI50,[26],329 nM and 2050 nM
same,TGI,[26],> 3.6 µM
same,GI50,[27],2.98 nM and 3.69 nM
same,TGI,[27],142 nM and 29.2 nM
same,TGI,[28],441 nM
same,GI50,[29],0.12 nM and 0.36 nM
same,TGI,[29],0.159 nM and 1.14 nM
same,GI50,[30],0.71 nM and 2.24 nM
same,TGI,[30],143 nM and 377 nM
same,GI50,[31],0.125 nM and 0.36 nM
same,TGI,[31],15.5 nM and 140 nM
same,TGI,[32],> 3.6 µM
same,TGI,[33],> 3.6 µM
same,TGI,[34],> 3.6 µM
same,GI50,[35],14.2 nM and 7.34 nM
same,TGI,[35],426 nM and 118 nM
same,GI50,[36],198 nM
same,TGI,[37],3.82 nM
same,TGI,[38],379 nM
same,GI50,[39],< 0.36 nM
same,TGI,[39],0.322 nM and < 0.36 nM
same,GI50,[40],0.36 nM
same,TGI,[40],0.371 nM and 2.17 nM
same,GI50,[41],0.194 nM and 1.44 nM
same,TGI,[41],309 nM and 672 nM
same,GI50,[42],< 0.36 nM
same,TGI,[42],0.131 nM and < 0.36 nM
same,GI50,[43],0.36 nM
same,GI50,[44],0.29 nM and 1.17 nM
same,TGI,[44],16.4 nM and 29.4 nM
same,GI50,[45],0.236 nM
same,TGI,[45],2.01 nM
same,GI50,[46],0.717 nM and 6.38 nM
same,GI50,[47],0.461 nM and 2.49 nM
same,TGI,[48],> 3.6 µM
same,TGI,[49],> 3.6 µM
same,GI50,[50],2.41 nM and 16.4 nM
same,TGI,[50],393 nM and > 3600 nM
same,GI50,[51],0.36 nM
same,GI50,[52],0.155 nM
same,TGI,[52],82.1 nM
same,GI50,[53],0.172 nM and 1.19 nM
same,TGI,[54],307 nM
same,GI50,[55],0.112 nM and 0.36 nM
same,TGI,[55],74.5 nM and 95.5 nM
same,GI50,[56],0.142 nM and 0.422 nM
same,TGI,[57],256 nM
